# From patent publication US11214594B2, “Antimicrobial peptide having synergistic antibacterial effect with antibiotics on multidrug resistant bacteria, and use thereof” (priority 2016, dated 2022)
# Where a SMILES comes first, the peptide text is derived from it.
# What was measured:
# MDREC 1238 = assay type: cell-based, Escherichia coli
# Outline: (§1)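 Each strain is brought to 2×10^6 CFU in nutrient-sufficient Mueller-Hinton medium and dispensed into wells. Peptide solutions, stepwise diluted 2:1 in the same medium, are then added. The minimal concentration preventing growth gives the MIC.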
# S. aureus = test: microbe, parasite or virus in culture; assay type: cell-based, Staphylococcus aureus
# Outline: as §1
# S. epidermidis = test: microbe, parasite or virus in culture; assay type: cell-based, Staphylococcus epidermidis
# Outline: as §1
# MDREC 1229 [1] = test: microbe, parasite or virus in culture; assay type: cell-based, Escherichia coli
# Outline: as §1
# E. coli [2] = test: microbe, parasite or virus in culture; assay type: cell-based, Escherichia coli
# Outline: as §1
# P. aeruginosa = test: microbe, parasite or virus in culture; assay type: cell-based, Pseudomonas aeruginosa
# Outline: as §1
# A. baumannii = test: MIC of antibiotic during combined treatment with antimicrobial peptide; assay type: cell-based, Acinetobacter baumannii; details: for Antibiotic MIC, Erythromycin / Antibiotic MIC, Linezolid / Antibiotic MIC, Vancomycin: A. baumannii
# Outline: (§2)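 Using MH broth, we determined combination MICs by titrating the antibiotic into wells and then repeating under the reverse dilution scheme.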
# MDRAB 12035 = test: as above; assay type: cell-based, Acinetobacter baumannii
# Outline: (§3)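 Broth microdilution in MH medium; strains were diluted to 2×10^6 CFU per ml before plating. Peptide was serially diluted stepwise at 2:1 starting from its MIC, and MH-diluted antibiotic was then added to determine MIC. The reversed arrangement was also tested.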
# MDRPA 2003 = assay type: cell-based, Pseudomonas aeruginosa
# Outline: as §1
# MDRPA 2002 = assay type: cell-based, Pseudomonas aeruginosa
# Outline: as §1
# B. subtilis = test: microbe, parasite or virus in culture; assay type: cell-based, Bacillus subtilis
# Outline: as §1
# MRSA 3126 = assay type: cell-based, Staphylococcus aureus; details: 3126
# Outline: as §1
# MRSA 3114 = assay type: cell-based, Staphylococcus aureus; details: 3114
# Outline: as §1
# E. coli [3] = test: MIC of antibiotic during combined treatment with antimicrobial peptide; assay type: cell-based, Escherichia coli; details: for Antibiotic MIC, Erythromycin / Antibiotic MIC, Linezolid / Antibiotic MIC, Vancomycin: E. coli
# Outline: as §2
# MDREC 1229 [4] = test: as above; assay type: cell-based, Escherichia coli
# Outline: as §3
# MDRST 8007 = test: Minimal inhibitory concentration (MIC), single agent; assay type: cell-based, Salmonella typhimurium; details: agent alone
# Outline: as §1
# [5] = combined with peptide at 1 μg/ml
# [6] = combined with peptide at 2 μg/ml
# [7] = combined with peptide at 4 μg/ml
# [8] = combined with peptide at 6 μg/ml
# [9] = combined with peptide at 8 μg/ml
# [10] = combined with peptide at 16 μg/ml
# [11] = combined with peptide at 32 μg/ml
# [12] = combined with peptide at 64 μg/ml
# [13] = peptide treatment concentration 1 μg/ml
# [14] = peptide treatment concentration 2 μg/ml
# [15] = peptide treatment concentration 4 μg/ml
# [16] = peptide treatment concentration 6 μg/ml
# [17] = peptide treatment concentration 8 μg/ml
# [18] = peptide treatment concentration 16 μg/ml
# [19] = peptide treatment concentration 32 μg/ml
# [20] = peptide treatment concentration 64 μg/ml
smiles,measurement,setting,value
"CC[C@H](C)[C@H](NC(=O)[C@H](CCCCN)NC(=O)[C@H](Cc1c[nH]c2ccccc12)NC(=O)[C@@H](N)CCCNC(=N)N)C(=O)N[C@@H](Cc1ccccc1)C(=O)N[C@@H](CCCCN)C(=O)N[C@@H](CCCCN)C(=O)N[C@H](C(=O)N1CCC[C@H]1C(=O)N[C@@H](CCCCN)C(=O)N[C@@H](CC(C)C)C(=O)N[C@@H](CC(C)C)C(=O)N[C@@H](Cc1c[nH]cn1)C(=O)N[C@@H](CO)C(=O)N[C@@H](Cc1ccccc1)C(=O)N[C@@H](CCCCN)C(=O)N[C@@H](CCCCN)C(=O)N[C@@H](Cc1ccccc1)C(N)=O)[C@@H](C)CC [PapMA-7, RWK IFK KIP KLL HSF KKF-NH2] (H-RWKIFKKIPKLLHSFKKF-NH2; N-terminus assumed)",Minimal inhibitory concentration MIC,MDREC 1238,64 µg/mL
same,Minimal inhibitory concentration MIC,S. aureus,>128 µg/mL
same,Minimal inhibitory concentration MIC,S. epidermidis,>128 µg/mL
same,Minimal inhibitory concentration MIC,MDREC 1229 [1],64 µg/mL
same,Minimal inhibitory concentration MIC,E. coli [2]; 16 h,32 µg/mL
same,Antibacterial activity relative to PapMA-1,E. coli [2]; E. coli,at least twice as high
same,Minimal inhibitory concentration MIC,P. aeruginosa,16 µg/mL
same,Antibacterial activity (in words),P. aeruginosa; P. aeruginosa and S. typhimurium,significantly increased
same,Synergistic effect of antibacterial activity with existing antibiotics compared with PapMA-1,A. baumannii; A. baumannii and MDRAB 12035,higher level than the PapMA-1 peptide
same,"Antibiotic MIC, Erythromycin",A. baumannii; [5],16 µg/mL
same,"Antibiotic MIC, Linezolid",A. baumannii; [5],128 µg/mL
same,"Antibiotic MIC, Vancomycin",A. baumannii; [5],>128 µg/mL
same,"Antibiotic MIC, Erythromycin",A. baumannii; [6],8 µg/mL
same,"Antibiotic MIC, Linezolid",A. baumannii; [6],32 µg/mL
same,"Antibiotic MIC, Vancomycin",A. baumannii; [6],64 µg/mL
same,"Antibiotic MIC, Erythromycin",A. baumannii; [7],2 µg/mL
same,"Antibiotic MIC, Linezolid",A. baumannii; [7],8 µg/mL
same,"Antibiotic MIC, Vancomycin",A. baumannii; [7],16 µg/mL
same,"Antibiotic MIC, Erythromycin",A. baumannii; [8],1 µg/mL
same,"Antibiotic MIC, Linezolid",A. baumannii; [8],2 µg/mL
same,"Antibiotic MIC, Vancomycin",A. baumannii; [8],4 µg/mL
same,"Antibiotic MIC, Erythromycin",A. baumannii; [9],0.125 µg/mL
same,"Antibiotic MIC, Linezolid",A. baumannii; [9],1 µg/mL
same,"Antibiotic MIC, Vancomycin",A. baumannii; [9],2 µg/mL
same,"Antibiotic MIC, Erythromycin",A. baumannii; [10],0 µg/mL
same,"Antibiotic MIC, Linezolid",A. baumannii; [10],0 µg/mL
same,"Antibiotic MIC, Vancomycin",A. baumannii; [10],0 µg/mL
same,"Antibiotic MIC, Erythromycin",A. baumannii; [11],0 µg/mL
same,"Antibiotic MIC, Linezolid",A. baumannii; [11],0 µg/mL
same,"Antibiotic MIC, Vancomycin",A. baumannii; [11],0 µg/mL
same,"Antibiotic MIC, Erythromycin",A. baumannii; [12],0 µg/mL
same,"Antibiotic MIC, Linezolid",A. baumannii; [12],0 µg/mL
same,"Antibiotic MIC, Vancomycin",A. baumannii; [12],0 µg/mL
same,Erythromycin MIC during combined treatment with peptide,MDRAB 12035; [13],8 µg/mL
same,Linezolid MIC during combined treatment with peptide,MDRAB 12035; [13],64 µg/mL
same,Vancomycin MIC during combined treatment with peptide,MDRAB 12035; [13],128 µg/mL
same,Erythromycin MIC during combined treatment with peptide,MDRAB 12035; [14],4 µg/mL
same,Linezolid MIC during combined treatment with peptide,MDRAB 12035; [14],32 µg/mL
same,Vancomycin MIC during combined treatment with peptide,MDRAB 12035; [14],32 µg/mL
same,Erythromycin MIC during combined treatment with peptide,MDRAB 12035; [15],2 µg/mL
same,Linezolid MIC during combined treatment with peptide,MDRAB 12035; [15],8 µg/mL
same,Vancomycin MIC during combined treatment with peptide,MDRAB 12035; [15],8 µg/mL
same,Erythromycin MIC during combined treatment with peptide,MDRAB 12035; [16],0.5 µg/mL
same,Linezolid MIC during combined treatment with peptide,MDRAB 12035; [16],4 µg/mL
same,Vancomycin MIC during combined treatment with peptide,MDRAB 12035; [16],4 µg/mL
same,Erythromycin MIC during combined treatment with peptide,MDRAB 12035; [17],0.125 µg/mL
same,Linezolid MIC during combined treatment with peptide,MDRAB 12035; [17],2 µg/mL
same,Vancomycin MIC during combined treatment with peptide,MDRAB 12035; [17],2 µg/mL
same,Erythromycin MIC during combined treatment with peptide,MDRAB 12035; [18],0.0625 µg/mL
same,Linezolid MIC during combined treatment with peptide,MDRAB 12035; [18],1 µg/mL
same,Vancomycin MIC during combined treatment with peptide,MDRAB 12035; [18],1 µg/mL
same,Erythromycin MIC during combined treatment with peptide,MDRAB 12035; [19],0 µg/mL
same,Linezolid MIC during combined treatment with peptide,MDRAB 12035; [19],0 µg/mL
same,Vancomycin MIC during combined treatment with peptide,MDRAB 12035; [19],0 µg/mL
same,Erythromycin MIC during combined treatment with peptide,MDRAB 12035; [20],0 µg/mL
same,Linezolid MIC during combined treatment with peptide,MDRAB 12035; [20],0 µg/mL
same,Vancomycin MIC during combined treatment with peptide,MDRAB 12035; [20],0 µg/mL
same,Minimal inhibitory concentration MIC,MDRPA 2003,16 µg/mL
same,Minimal inhibitory concentration MIC,MDRPA 2002,16 µg/mL
same,Minimal inhibitory concentration MIC,B. subtilis,>128 µg/mL
same,Minimal inhibitory concentration MIC,MRSA 3126,>128 µg/mL
same,Minimal inhibitory concentration MIC,MRSA 3114,>128 µg/mL
same,Synergistic effect of antibacterial activity with existing antibiotics compared with PapMA-1,E. coli [3]; E. coli and MDREC1229,higher level than the PapMA-1 peptide
same,"Antibiotic MIC, Erythromycin",E. coli [3]; erythromycin combined with peptide at 1 μg/ml,64 µg/mL
same,"Antibiotic MIC, Erythromycin",E. coli [3]; erythromycin combined with peptide at 2 μg/ml,32 µg/mL
same,"Antibiotic MIC, Erythromycin",E. coli [3]; erythromycin combined with peptide at 4 μg/ml,4 µg/mL
same,"Antibiotic MIC, Erythromycin",E. coli [3]; erythromycin combined with peptide at 6 μg/ml,2 µg/mL
same,"Antibiotic MIC, Erythromycin",E. coli [3]; erythromycin combined with peptide at 8 μg/ml,0.25 µg/mL
same,"Antibiotic MIC, Erythromycin",E. coli [3]; erythromycin combined with peptide at 16 μg/ml,0.125 µg/mL
same,"Antibiotic MIC, Erythromycin",E. coli [3]; erythromycin combined with peptide at 32 μg/ml,0 µg/mL
same,"Antibiotic MIC, Erythromycin",E. coli [3]; erythromycin combined with peptide at 64 μg/ml,0 µg/mL
same,"Antibiotic MIC, Linezolid",E. coli [3]; linezolid combined with peptide at 1 μg/ml,>128 µg/mL
same,"Antibiotic MIC, Linezolid",E. coli [3]; linezolid combined with peptide at 2 μg/ml,128 µg/mL
same,"Antibiotic MIC, Linezolid",E. coli [3]; linezolid combined with peptide at 4 μg/ml,8 µg/mL
same,"Antibiotic MIC, Linezolid",E. coli [3]; linezolid combined with peptide at 6 μg/ml,4 µg/mL
same,"Antibiotic MIC, Linezolid",E. coli [3]; linezolid combined with peptide at 8 μg/ml,4 µg/mL
same,"Antibiotic MIC, Linezolid",E. coli [3]; linezolid combined with peptide at 16 μg/ml,1 µg/mL
same,"Antibiotic MIC, Linezolid",E. coli [3]; linezolid combined with peptide at 32 μg/ml,0 µg/mL
same,"Antibiotic MIC, Linezolid",E. coli [3]; linezolid combined with peptide at 64 μg/ml,0 µg/mL
same,"Antibiotic MIC, Vancomycin",E. coli [3]; vancomycin combined with peptide at 1 μg/ml,>128 µg/mL
same,"Antibiotic MIC, Vancomycin",E. coli [3]; vancomycin combined with peptide at 2 μg/ml,128 µg/mL
same,"Antibiotic MIC, Vancomycin",E. coli [3]; vancomycin combined with peptide at 4 μg/ml,32 µg/mL
same,"Antibiotic MIC, Vancomycin",E. coli [3]; vancomycin combined with peptide at 6 μg/ml,8 µg/mL
same,"Antibiotic MIC, Vancomycin",E. coli [3]; vancomycin combined with peptide at 8 μg/ml,4 µg/mL
same,"Antibiotic MIC, Vancomycin",E. coli [3]; vancomycin combined with peptide at 16 μg/ml,1 µg/mL
same,"Antibiotic MIC, Vancomycin",E. coli [3]; vancomycin combined with peptide at 32 μg/ml,0 µg/mL
same,"Antibiotic MIC, Vancomycin",E. coli [3]; vancomycin combined with peptide at 64 μg/ml,0 µg/mL
same,"Antibiotic MIC, Erythromycin",MDREC 1229 [4]; [13],64 µg/mL
same,"Antibiotic MIC, Linezolid",MDREC 1229 [4]; [13],128 µg/mL
same,"Antibiotic MIC, Vancomycin",MDREC 1229 [4]; [13],>128 µg/mL
same,"Antibiotic MIC, Erythromycin",MDREC 1229 [4]; [14],16 µg/mL
same,"Antibiotic MIC, Linezolid",MDREC 1229 [4]; [14],32 µg/mL
same,"Antibiotic MIC, Vancomycin",MDREC 1229 [4]; [14],>128 µg/mL
same,"Antibiotic MIC, Erythromycin",MDREC 1229 [4]; [15],4 µg/mL
same,"Antibiotic MIC, Linezolid",MDREC 1229 [4]; [15],16 µg/mL
same,"Antibiotic MIC, Vancomycin",MDREC 1229 [4]; [15],128 µg/mL
same,"Antibiotic MIC, Erythromycin",MDREC 1229 [4]; [16],2 µg/mL
same,"Antibiotic MIC, Linezolid",MDREC 1229 [4]; [16],8 µg/mL
same,"Antibiotic MIC, Vancomycin",MDREC 1229 [4]; [16],16 µg/mL
same,"Antibiotic MIC, Erythromycin",MDREC 1229 [4]; [17],1 µg/mL
same,"Antibiotic MIC, Linezolid",MDREC 1229 [4]; [17],4 µg/mL
same,"Antibiotic MIC, Vancomycin",MDREC 1229 [4]; [17],8 µg/mL
same,"Antibiotic MIC, Erythromycin",MDREC 1229 [4]; [18],0.125 µg/mL
same,"Antibiotic MIC, Linezolid",MDREC 1229 [4]; [18],2 µg/mL
same,"Antibiotic MIC, Vancomycin",MDREC 1229 [4]; [18],2 µg/mL
same,"Antibiotic MIC, Erythromycin",MDREC 1229 [4]; [19],0.0625 µg/mL
same,"Antibiotic MIC, Linezolid",MDREC 1229 [4]; [19],1 µg/mL
same,"Antibiotic MIC, Vancomycin",MDREC 1229 [4]; [19],1 µg/mL
same,"Antibiotic MIC, Erythromycin",MDREC 1229 [4]; [20],0 µg/mL
same,"Antibiotic MIC, Linezolid",MDREC 1229 [4]; [20],0 µg/mL
same,"Antibiotic MIC, Vancomycin",MDREC 1229 [4]; [20],0 µg/mL
same,Minimal inhibitory concentration MIC,MDRST 8007,32 µg/mL
